Assay results taken from patent US8415342B2, “Besifloxacin ophthalmic composition for the treatment or control of infection” (Bausch & Lomb Incorporated, priority 2008, dated 2013).
Converted amounts (≈) assume the structure as drawn. Like-named read-outs stand apart in the source and are kept apart here.

Tests used:
Assay type in all cases: cell-based
[1] = tested on: S. pneumoniae topoisomerase mutants; assay: MIC against defined topoisomerase mutants; conditions: Streptococcus pneumoniae
[2] = tested on: S. aureus topoisomerase mutants; assay: MIC against defined topoisomerase mutants; conditions: Staphylococcus aureus
[3] = tested on: E. coli topoisomerase mutants; assay: MIC against defined topoisomerase mutants; conditions: Escherichia coli
Protocol: Furthermore, an experiment was conducted to assess the mechanism of action of besifloxacin in S. pneumoniae, S. aureus, and E. coli via step selections for isolates with decreased susceptibility to besifloxacin, as well as by testing for altered susceptibilities of ciprofloxacin-resistant variants of all three species containing genetically defined mutations in the quinolone resistance determining regions (QRDRs) of structural genes encoding DNA gyrase and topoisomerase IV (Table 2).

[4] = tested on: Staphylococcus aureus; assay: MIC, CLSI broth microdilution, clinical isolates; conditions: for MIC50 / MIC90: Staphylococcus aureus
[5] = tested on: Staphylococcus epidermidis; assay: MIC, CLSI broth microdilution, clinical isolates; conditions: for MIC50: Staphylococcus epidermidis
[6] = tested on: Staphylococcus lugdunensis; assay: MIC, CLSI broth microdilution, clinical isolates; conditions: Staphylococcus lugdunensis (N = 15)
[7] = tested on: Staphylococcus saprophyticus; assay: MIC, CLSI broth microdilution, clinical isolates; conditions: Staphylococcus saprophyticus (N = 101)
[8] = tested on: Staphylococcus haemolyticus; assay: MIC, CLSI broth microdilution, clinical isolates; conditions: Staphylococcus haemolyticus (N = 101)
[9] = tested on: Staphylococcus warneri; assay: MIC, CLSI broth microdilution, clinical isolates; conditions: Staphylococcus warneri (N = 50)
[10] = tested on: Staphylococcus hominis; assay: MIC, CLSI broth microdilution, clinical isolates; conditions: Staphylococcus hominis (N = 50)
[11] = tested on: Streptococcus agalactiae; assay: MIC, CLSI broth microdilution, clinical isolates; conditions: Streptococcus agalactiae (N = 100)
[12] = tested on: Streptococcus pneumoniae; assay: MIC, CLSI broth microdilution, clinical isolates
[13] = tested on: Streptococcus pyogenes; assay: MIC, CLSI broth microdilution, clinical isolates; conditions: Streptococcus pyogenes (N = 101)
[14] = tested on: Lancefield group C, F, G streptococci; assay: MIC, CLSI broth microdilution, clinical isolates; conditions: G streptococci (N = 50)
[15] = tested on: Viridans streptococci; assay: MIC, CLSI broth microdilution, clinical isolates; conditions: Viridans streptococci (N = 156)
[16] = tested on: Citrobacter koseri; assay: MIC, CLSI broth microdilution, clinical isolates; conditions: Citrobacter koseri (N = 100)
[17] = tested on: Klebsiella oxytoca; assay: MIC, CLSI broth microdilution, clinical isolates; conditions: Klebsiella oxytoca (N = 50)
[18] = tested on: Haemophilus influenzae; assay: MIC, CLSI broth microdilution, clinical isolates; conditions: for MIC50 / MIC90: Haemophilus influenzae
[19] = tested on: Legionella pneumophila; assay: microbe, parasite or virus in culture
[20] = tested on: Moraxella catarrhalis; assay: MIC, CLSI broth microdilution, clinical isolates; conditions: Moraxella catarrhalis (N = 101)
[21] = tested on: Morganella morganii; assay: MIC, CLSI broth microdilution, clinical isolates; conditions: Morganella morganii (N = 51)
[22] = Staphylococcus aureus (CNS, N = 16)
[23] = Staphylococcus aureus (CS, N = 14)
[24] = Staphylococcus aureus (MSSA, N = 19)
[25] = Staphylococcus aureus (all phenotypes, N = 30)
[26] = MRSA, Staphylococcus aureus (MRSA, N = 11)
[27] = MSSA, Staphylococcus aureus (MSSA, N = 19)
[28] = Staphylococcus epidermidis (CNS, N = 6)
[29] = Staphylococcus epidermidis (CS, N = 9)
[30] = Staphylococcus epidermidis (MRSE, N = 9)
[31] = Staphylococcus epidermidis (MSSE, N = 6)
[32] = Staphylococcus epidermidis (all phenotypes, N = 15)
[33] = Streptococcus pneumoniae (PSSP, N = 31)
[34] = Haemophilus influenzae (all phenotypes, N = 40)
[35] = Haemophilus influenzae (bla negative, N = 24)
[36] = Haemophilus influenzae (bla positive, N = 16)

## O=C(O)c1cn(C2CC2)c2cc(N3CCNCC3)c(F)cc2c1=O [Ciprofloxacin]
[1]; S. pneumoniae parC S79Y
  MIC: 8 µg/mL (≈ 24.1 µM)
[1]; S. pneumoniae parC S79Y + gyrA S81F
  MIC: 64 µg/mL
[2]; S. aureus Wild type
  MIC: 1 µg/mL (≈ 3.02 µM)
[2]; S. aureus parC S80F + gyrA S84L
  MIC: 64 µg/mL
[3]; E. coli Wild type
  MIC: 0.008 µg/mL (≈ 0.0241 µM)
[3]; E. coli gyrA D87Y (or S83L)
  MIC: 0.12 µg/mL (≈ 0.362 µM)
[3]; E. coli gyrA S83L + parC S80R
  MIC: 4 µg/mL
[3]; E. coli gyrA S83L + parE H445L
  MIC: 0.12 µg/mL
[3]; E. coli gyrB D426N
  MIC: 0.03 µg/mL (≈ 0.0905 µM)

## NC[C@H]1O[C@H](O[C@H]2[C@H](O)[C@@H](O[C@H]3O[C@H](CO)[C@@H](O)[C@H](N)[C@H]3O)[C@H](N)C[C@@H]2N)[C@H](N)C[C@@H]1O [Tobramycin]
[4]; [22]
  % S: 68.8%
  MIC50: 0.5 µg/mL (≈ 1.07 µM)
  MIC90: > 32 µg/mL
[4]; [23]
  % S: 92.9%
  MIC Range: 0.12 to 8 µg/mL
  MIC50: 0.25 µg/mL (≈ 0.535 µM)
  MIC90: 1 µg/mL (≈ 2.14 µM)
[4]; Staphylococcus aureus (MRSA, N = 11)
  % S: 54.5%
[4]; [24]
  % S: 94.7%
  MIC Range: 0.12 to 8 µg/mL
[4]; [25]
  % S: 80.0%
  MIC50: 0.5 µg/mL (≈ 1.07 µM)
  MIC90: > 32 µg/mL
[4]; [26]
  MIC50: 1 µg/mL (≈ 2.14 µM)
  MIC90: > 32 µg/mL
[4]; [27]
  MIC50: 0.25 µg/mL (≈ 0.535 µM)
  MIC90: 1 µg/mL (≈ 2.14 µM)
[5]; [28]
  % S: 83.3%
  MIC Range: 0.06 to 16 µg/mL
  MIC50: 2 µg/mL (≈ 4.28 µM)
[5]; [29]
  % S: 88.9%
  MIC Range: ≦0.008-8 μg/mL
  MIC50: 0.03 µg/mL (≈ 0.0642 µM)
[5]; [30]
  % S: 77.8%
  MIC Range: 0.03 to 16 µg/mL
[5]; [31]
  % S: 100.0%
  MIC Range: ≦0.008-0.06 μg/mL
  MIC50: 0.03 µg/mL (≈ 0.0642 µM)
[5]; [32]
  % S: 86.7%
  MIC90: 8 µg/mL (≈ 17.1 µM)
  MIC Range: ≦0.008-16 μg/mL
  MIC50: 0.06 µg/mL (≈ 0.128 µM)
[5]; MRSE, Staphylococcus epidermidis (MRSE, N = 9)
  MIC50: 4 µg/mL (≈ 8.56 µM)
[6]
  % S: 60.0%
  MIC50: 0.12 µg/mL (≈ 0.257 µM)
  MIC90: 32 µg/mL (≈ 68.4 µM)
[7]
  % S: 99.0%
  MIC50: 0.015 µg/mL (≈ 0.0321 µM)
  MIC90: 0.06 µg/mL (≈ 0.128 µM)
  MIC Range: ≦0.008-32 μg/mL
[8]
  % S: 64.4%
  MIC50: 2 µg/mL (≈ 4.28 µM)
  MIC90: 32 µg/mL (≈ 68.4 µM)
[9]
  % S: 86.0%
  MIC50: 0.06 µg/mL (≈ 0.128 µM)
  MIC90: 8 µg/mL (≈ 17.1 µM)
[10]
  % S: 32.0%
  MIC50: 16 µg/mL (≈ 34.2 µM)
  MIC90: 32 µg/mL (≈ 68.4 µM)
[11]; read-out: MIC50
  MIC50: 32 µg/mL (≈ 68.4 µM)
[11]; read-out: MIC90
  MIC90: 64 µg/mL (≈ 137 µM)
[12]; Streptococcus pneumoniae (PISP, N = 2)
  MIC Range: 16 to 32 µg/mL
[12]; Streptococcus pneumoniae (PRSP, N = 2)
  MIC Range: 16 to 32 µg/mL
[12]; [33]
  MIC50: 16 µg/mL (≈ 34.2 µM)
  MIC90: 32 µg/mL (≈ 68.4 µM)
  MIC Range: 8 to 32 µg/mL
[12]; Streptococcus pneumoniae (all phenotypes, N = 35)
  MIC Range: 8 to 32 µg/mL
[12]; Streptococcus pneumoniae (all phenotypes, N = 35), read-out: MIC50
  MIC50: 16 µg/mL (≈ 34.2 µM)
[12]; Streptococcus pneumoniae (all phenotypes, N = 35), read-out: MIC90
  MIC90: 32 µg/mL (≈ 68.4 µM)
[13]
  MIC Range: 4 to 64 µg/mL
[13]; read-out: MIC50
  MIC50: 16 µg/mL (≈ 34.2 µM)
[13]; read-out: MIC90
  MIC90: 16 µg/mL (≈ 34.2 µM)
[14]
  MIC Range: 2 to 32 µg/mL
[14]; read-out: MIC50
  MIC50: 8 µg/mL (≈ 17.1 µM)
[14]; read-out: MIC90
  MIC90: 16 µg/mL (≈ 34.2 µM)
[15]
  MIC Range: 0.5 to 128 µg/mL
[15]; read-out: MIC50
  MIC50: 16 µg/mL (≈ 34.2 µM)
[15]; read-out: MIC90
  MIC90: 32 µg/mL (≈ 68.4 µM)
[16]
  % S: 99.0%
  MIC50: 0.5 µg/mL (≈ 1.07 µM)
  MIC90: 1 µg/mL (≈ 2.14 µM)
  MIC Range: 0.25 to 16 µg/mL
[17]
  % S: 96.0%
  MIC50: 0.5 µg/mL (≈ 1.07 µM)
  MIC90: 1 µg/mL (≈ 2.14 µM)
  MIC Range: 0.25 to 8 µg/mL
[18]; [34]
  MIC Range: 0.06 to 4 µg/mL
  MIC50: 2 µg/mL (≈ 4.28 µM)
  MIC90: 4 µg/mL (≈ 8.56 µM)
[18]; [35]
  MIC Range: 0.06 to 4 µg/mL
  MIC50: 2 µg/mL (≈ 4.28 µM)
  MIC90: 4 µg/mL (≈ 8.56 µM)
[18]; [36]
  MIC Range: 0.5 to 4 µg/mL
  MIC50: 2 µg/mL (≈ 4.28 µM)
  MIC90: 2 µg/mL (≈ 4.28 µM)
[19]; Legionella pneumophila
  MIC50: 1 µg/mL (≈ 2.14 µM)
  MIC90: 2 µg/mL (≈ 4.28 µM)
[19]; Legionella pneumophila (N = 50)
  MIC Range: 0.25 to 4 µg/mL
[20]
  MIC50: 0.25 µg/mL (≈ 0.535 µM)
  MIC90: 0.25 µg/mL (≈ 0.535 µM)
  MIC Range: 0.03 to 0.5 µg/mL
[21]
  % S: 90.2%
  MIC50: 1 µg/mL (≈ 2.14 µM)
  MIC90: 4 µg/mL (≈ 8.56 µM)
  MIC Range: 0.25 to 32 µg/mL
